Data: the supplement of paper PMC8988213
Where a name gives a salt, the structure may show the parent alone.

Assays:
[1] = tested on: ID188 patient-derived PDAC 2D line (pre-FOLFIRINOX); experiment: normalised area under dose-response curve (viability relative to DMSO, 7 doses up to 10 µM) (fraction (AUC)); higher = less sensitive (more viability retained); details: 72 h; top dose: 10 µM
Procedure, shortened: (§1)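 A robot plated 1,500–3,000 cells/well of patient-derived 2D PDAC cells, outgrown from organoids, into 96-well plates, followed by overnight incubation at 37°C, 5% CO2. The cells were exposed for 72 h to SelleckChem library compounds at seven 3-fold-diluted concentrations up to 10 µM, and CellTiter-Glo luminescence was read after 10 min. Area under the dose-response curve came from the GRmetrics R package, with viability normalised to control wells.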

[2] = tested on: ID211 patient-derived PDAC 2D line (post-FOLFIRINOX); experiment: as above; details: 72 h; top dose: 10 µM
Procedure, shortened: as §1

SMILES	normalised area under dose-response curve [1]	normalised area under dose-response curve [2]
Cn1cc(-c2cnn3c(N)c(Br)c([C@@H]4CCCNC4)nc23)cn1	0.873	0.9
COCCOc1nc(-c2ccc(Cl)c(Cl)c2)n(-c2ccc(NC(=O)CCl)cc2)n1 [MI-2 (MALT1 inhibitor)]	0.897	0.573
CCCCc1nc2cc(/C=C/C(=O)NO)ccc2n1CCN(CC)CC [Pracinostat (SB939)]	0.778	0.799
O=C(O)c1ccc(N2C(=O)/C(=C\c3ccc(-c4ccc([N+](=O)[O-])cc4)o3)C=C2c2ccccc2)cc1 [4E1RCat]	0.946	0.895
O=C1Nc2ccccc2/C1=C1/Nc2ccccc2C1=O [Indirubin]	0.791	0.801
O=C(Nc1cc(C(F)(F)F)ccc1N1CCCCC1)c1ccncc1 [SRPIN340]	0.964	0.905
CS(=O)(=O)c1ccc(C(=O)Nc2ccc(Cl)c(-c3ccccn3)c2)c(Cl)c1 [Vismodegib (GDC-0449)]	0.926	0.84
CN1CCN(c2nc(C3=C(c4c[nH]c5ccccc45)C(=O)NC3=O)c3ccccc3n2)CC1 [Sotrastaurin]	0.978	0.941
CC(=O)Nc1nc(C)c(-c2ccc(Cl)c(S(=O)(=O)NCCO)c2)s1 [PIK-93]	0.927	0.807
Cc1cc(C)c(CNC(=O)c2cc(-c3ccc(N4CCN(C)CC4)nc3)cc3c2c(C)cn3C(C)C)c(=O)[nH]1 [GSK503]	0.992	0.891
Cc1cc2c(F)c(Oc3ncnn4cc(OC[C@@H](C)O)c(C)c34)ccc2[nH]1	0.918	0.813
NS(=O)(=O)NCCNc1nonc1/C(=N/O)Nc1ccc(F)c(Br)c1	0.924	0.909
Cc1cc(NC(=O)c2cccc(NC(=O)/C=C/CN(C)C)c2)ccc1Nc1nccc(-c2cccnc2)n1 [JNK-IN-8]	0.874	0.842
CCNC(=O)C[C@@H]1N=C(c2ccc(Cl)cc2)c2cc(OC)ccc2-n2c(C)nnc21 [I-BET-762]	0.888	0.777
CC(C)=CCC/C(C)=C/CC/C(C)=C/CSc1ccccc1C(=O)O [Salirasib]	0.949	0.881
CC(C)(C)Cn1c(N)nc2ccc(-c3[nH]c(C(C)(C)C)nc3-c3ccc(F)cc3)nc21	0.992	0.862
CCC(C)SSc1ncc[nH]1 (configuration not stated) [PX-12]	0.985	0.903
Nc1cc(F)ccc1NC(=O)/C=C/c1cnn(C/C=C/c2ccccc2)c1 [RGFP966]	0.911	0.779
Cc1cc(C)nc(NS(=O)(=O)c2ccc(NC(=S)NC(=O)COc3ccc(Br)cc3Cl)cc2)n1 [ZCL278]	0.928	0.777
O=C(c1ccc(C(=O)N2CCC(N3CCCC3)CC2)c(Nc2ccccc2)c1)N1CCC(N2CCCC2)CC1 [UNC1215]	0.931	0.951
C#Cc1cccc(Nc2ncnc3cc(OCCOC)c(OCCOC)cc23)c1 [Erlotinib]	0.902	0.7
Cc1cc(SCc2sc(-c3ccc(C(F)(F)F)c(F)c3)nc2C)ccc1OCC(=O)O [GW0742]	0.763	0.93
CCn1c(=O)c(-c2cc[nH]n2)cc2c(C)nc(N)nc21	0.814	0.792

SMILES	normalised area under dose-response curve [1]	normalised area under dose-response curve [2]
O=C(Nc1cccc2cccnc12)c1ccc(N2C(=O)[C@@H]3[C@H](C2=O)[C@@H]2C=C[C@H]3C2)cc1 [IWR-1-endo]	0.938	0.808
O=C(Nc1cccc(C(F)(F)F)c1)Nc1cc(S(=O)(=O)NC2CC2)ccc1-c1ccsc1 [AGI-6780]	0.906	0.842
O=C(O)CCCCC(CCSCc1ccccc1)SCc1ccccc1 (configuration not stated) [CPI-613]	0.897	0.902
NC(=O)c1ccc2nc(-c3ccc(Oc4ccc(Cl)cc4)cc3)[nH]c2c1 [Chk2 Inhibitor II (BML-277)]	0.967	0.865
O=C(O)c1ccc2c(c1)nc(Nc1cccc(Cl)c1)c1ccncc12 [Silmitasertib (CX-4945)]	0.924	0.88
Cc1cccc(-c2nn3c(c2-c2ccnc4ccc(C(N)=O)cc24)CCC3)n1	0.968	0.965
O=C(O)CCNc1cc(N2CCc3ccccc3CC2)nc(-c2ccccn2)n1 [GSK J1]	1	0.832
Nc1nc2c(cnn2CCc2ccccc2)c2nc(-c3ccco3)nn12	0.94	0.905
CC(C)c1ccc2c(c1)c(SC(C)(C)C)c(CC(C)(C)C(=O)O)n2Cc1ccc(Cl)cc1 [MK-886 (L-663,536)]	0.989	0.843
Cc1ccccc1C(C(=O)NC1CCCCC1)N(C(=O)Cn1ccnc1C)c1cccc(F)c1 (configuration not stated) [AGI-5198]	0.972	0.804
CNC(=O)c1cccc(-c2ccc3c(N4CCOC[C@@H]4C)nc(N4CCOC[C@@H]4C)nc3n2)c1 [Vistusertib (AZD2014)]	0.723	0.765
CCOc1ccc(Cc2cc([C@@H]3O[C@H](CO)[C@@H](O)[C@H](O)[C@H]3O)ccc2Cl)cc1 [Dapagliflozin]	0.943	0.913
CC(c1cc2ccccc2s1)N(O)C(N)=O (configuration not stated) [Zileuton]	0.817	0.859
Cc1nn(C)c(COc2ccc(N3CCN(S(=O)(=O)N(C)C)CC3)cc2)c1-c1cccc2c(CCCOc3cccc4ccccc34)c(C(=O)O)n(CCN3CCOCC3)c12	0.98	0.938
CCC1=C[C@@H]2CN(C1)Cc1c([nH]c3ccccc13)[C@@](C(=O)OC)(c1cc3c(cc1OC)N(C)[C@H]1[C@@](O)(C(=O)OC)[C@H](OC(C)=O)[C@]4(CC)C=CCN5CC[C@]31[C@@H]54)C2 [Vinorelbine Tartrate]	0.546	0.338
Clc1ccc(NN=C(c2ccccc2)c2ccccn2)nc1 [JIB-04]	0.641	0.662
CNC(=O)c1cc(Oc2ccc(NC(=O)Nc3ccc(Cl)c(C(F)(F)F)c3)cc2)ccn1 [Sorafenib Tosylate]	0.947	0.953
COCC[n+]1c2c(n(Cc3cnccn3)c1C)C(=O)c1ccccc1C2=O [YM155 (Sepantronium Bromide)]	0.0409	0.279
CNC(=O)c1cc(Oc2ccc(NC(=O)Nc3cc(C(C)(C)C)nn3-c3ccc4ncccc4c3)c(F)c2)ccn1 [Rebastinib (DCC-2036)]	0.853	0.885
Cc1cc(O)c(-c2ccc([C@@H](C)CN)cc2)c2c1[nH]c(=O)c1sccc12 [OTS514 hydrochloride]	0.368	0.443
CN(c1ncccc1CNc1nc(Nc2ccc3c(c2)CC(=O)N3)ncc1C(F)(F)F)S(C)(=O)=O	0.89	0.795
CC(C)(C)c1[nH]cnc1/C=c1\[nH]c(=O)/c(=C/c2ccccc2)[nH]c1=O [Plinabulin (NPI-2358)]	0.588	0.355
O=C(Cc1ccccc1)Nc1nnc(CCSCCc2nnc(NC(=O)Cc3ccccc3)s2)s1 [BPTES]	0.861	0.854
